From patent publication US20030143282A1, “Adenosine A3 receptor agonist” (priority 2002, published 2003)

What was measured:
B16-F10 melanoma cells = test: Melanoma lung metastatic foci growth in mice inoculated with B16-F10 cells; type: in vivo, C57BL/6J mice; conditions: adenosine 268 μg/kg body weight, administered orally or intraperitoneally
Description: The B-16-F10 murine melanoma cell line was used in the in vitro and in vivo experiments. Cells were maintained in RPMI medium containing 10% FBS, penicillin and streptomycin. They were transferred twice weekly to a freshly prepared medium. To examine the effect of the different preparations on tumor cell growth, B16-F10 (2.5×10^5) melanoma cells were intravenously inoculated to C57BL/6J mice. Each group contained 20 mice and experiments were repeated at least 4 times. Mice were treated orally according to the following protocol starting one day after tumor inoculation: 1. Adenosine—268 μg/kg body weight 2. MCM 4AU twice daily. 3. MCM+ADA, 4AU twice daily. 4. Vehicle—twice daily. An additional group of mice was treated daily intraperitoneally with adenosine (268 μg/kg body weight). Mice were sacrificed after fifteen days, lungs removed and black metastatic foci were counted using a Dissecting Microscope.

[1] = Myeloprotective effect in mice treated with cyclophosphamide; type: in vivo; conditions: adenosine administered orally or intraperitoneally, after cyclophosphamide
Description: The myeloprotective effect of the various preparations were examined by injecting mice intraperitoneally with 50 mg/kg body weight of cyclophosphamide. Each group contained 10 mice and experiments were repeated at least 4 times. Adenosine, MCM (4 activity units) or MCM+ADA (4 activity units) were each orally administered 48 h and 72 h following the chemotherapy. After 120 h blood samples were withdrawn. The number of leukocytes and percent of neutrophils were evaluated.

B-16-F10 melanoma cells = test: [3H]-thymidine incorporation assay, tumor cell proliferation; type: cell-based, murine; conditions: B16-F10 cells; 0.1, 0.05 and 0.001 μM
Description: The B-16-F10 murine melanoma cell line was used in the in vitro and in vivo experiments. Cells were maintained in RPMI medium containing 10% FBS, penicillin and streptomycin. They were transferred twice weekly to a freshly prepared medium.
(§1) [^3H]-tymidine incorporation assay was used to evaluate cell growth. 1.5×10^4/ml B-16-F10 melanoma or 3×10^5/ml bone marrow cells were cultured in RPMI medium containing 10% FBS in 96 well microtiter plates. These cultures were incubated in the presence of MCM in a concentration of 50%. Since MCM was prepared in PBS, cultures containing tumor or bone marrow cells suspended in 50% PBS served as controls. During the last 18 hours of incubation, each well was pulsed with 1 μCi [^3H]-thymnidine. The cells were harvested and the [^3H]-thymnidine uptake was determined in an LKB liquid scintillation counter (LKB, Piscataway, N.J., USA).
(§2) Results were expressed as % of cell proliferation inhibition or stimulation, calculated according to the following formula: [formula]
where A represents the cell count of sample and B represents the cell count of the control. According to this calculation control values are 0% of inhibition or stimulation. […]
(§3) In this set of experiments, the question whether the effect of MCM+ADA on tumor or normal cells was mediated through A3AR was examined. […] [^3H]-thymidine uptake was determined as described above.

bone marrow cells = test: [3H]-thymidine incorporation assay, bone marrow cell proliferation; type: cell-based, C57BL/6J mice; conditions: 0.1, 0.05 and 0.001 μM
Description: Bone marrow cells were obtained from the femur of C57BL/6J mice. Cells were disaggregated by passing through a 25 G needle.
as §1, §2
where A represents the cell count of sample and B represents the cell count of the control. According to this calculation control values are 0% of inhibition or stimulation.
To eliminate adenosine from MCM preparations, adenosine deaminase (ADA) (Sigma, Chemical Co. St. Louis, Mo., USA) was added to the MCM for 1 hour. […]
as §3

Row | SMILES | inhibition of tumor growth (B16-F10 melanoma cells) | chemoprotective effect [1] | effect of MRS-1220 by itself on proliferation (B-16-F10 melanoma cells) | effect of MRS-1220 by itself on proliferation (bone marrow cells)
1 | Nc1ncnc2c1ncn2[C@@H]1O[C@H](CO)[C@@H](O)[C@H]1O [Adenosine, adenosine] | failed to inhibit tumor growth | failed to inhibit tumor growth or act as a chemoprotective agent |  | 
2 | O=C(Cc1ccccc1)Nc1nc2ccc(Cl)cc2c2nc(-c3ccco3)nn12 [MRS-1220, 9-chloro-2-(2-furanyl)-5-[(phenylacetyl)amino] [1,2,4,]-triazolo[1,5-c] quinazoline] |  |  | no effect | no effect
